Measurements as given in US7790762B2, “Compounds and methods for thiol-containing compound efflux and cancer treatment” (National Jewish Health, priority 2002, dated 2010).
Like-named read-outs stand apart in the source and are kept apart here.

Columns and labels:
Assay type in all cases: cell-based, human
[1] = system: A549 cells; assay: Intracellular GSH levels by HPLC-EC in A549 cells; details: for activity at 25 µM / activity at 50 µM / activity at 75 µM: Homo sapiens; for effect on intracellular GSH (words): A549 cells; for activity at 75 µM: A549, 75 μM
Procedure: (§1) Cell lines and culture conditions. Human lung epithelial cancer (A549), human leukemia HL-60 and human prostate (PC-3) tumor cells were purchased from ATCC (Manassas, Va.). A549 and PC-3 cells were grown in Ham's F12 medium (F12) and Kaighn's modification of Ham's F12 medium (F12K) with 2 mM L-glutamine (ATCC), respectively, supplemented with 10% fetal bovine serum (FBS) and 5% pen/strep (10,000 unit, Cellgro). HL-60 cells were grown in Iscove's modified Dulbecco's medium with 4 mM L-glutamine (ATCC) supplemented with 20% FBS and 5% pen/strep. Cell were grown in T-75 flask at 37° C. and 5% CO2 air atmosphere and in 24-well plates for GSH levels and LDH release measurements.
(§2) Intracellular levels of GSH. Intracellular GSH levels can be determined by HPLC-EC. Cultured cells from 24-well plates were washed once with 1 ml of PBS and then re-suspended in 0.5 ml of distilled water with 40 μM of digitonin (2 mM stock solution in DMSO) for 30 min at room temperature. Then, 50 μl of 10% meta-phosphoric acid were added (1% final concentration), the samples were sonicated for 2 min, centrifuged at 20,000 g for 10 min, and 0.2 ml of supernatant placed in vials for HPLC analysis. […] The flow rate was […]. The retention time for GSH in these conditions was 7.5 min. The HPLC instrument was from ESA, Inc. (Chelmsford, Mass.), equipped with an autosampler (model 540) and a Coul array detector (model 5600A). The potential applied was +0.75 V vs. H/Pd electrode, and the injection volume 5 μl.

[2] = system: HL-60 cells; assay: Intracellular GSH levels by HPLC-EC in HL-60 cells; details: for activity at 75 µM: HL-60, 75 μM
Procedure: as §1, §2

[3] = system: HL-60 cells; assay: Cytotoxicity as LDH release in HL-60 cells; details: 48 hours treatment
Procedure: as §1
(§3) Assessment of cytotoxicity. In one exemplary method, membrane integrity of A549, HL-60 and PC-3 cells was used as an index of drug-induced cytotoxicity, and was assessed by monitoring the release of cytosolic lactate dehydrogenase (LDH). LDH activity was measured in the culture medium and cell lysates (50 mM HEPES, Triton X-100 0.5%, pH 7) using a plate reader format as previously described (41). Briefly, 5 μl of cell culture supernatant and lysates were incubated with 0.24 mM NADH in a Tris/NaCl pH 7.2 buffer in 96-well plates for 5 min at 25° C. The reaction was started by the addition of 9.8 mM pyruvate and the consumption of NADH followed at 340 nm for 5 min at 30° C. Percent LDH release was calculated by the following: (supernatant LDH/supernatant LDH+lysate LDH)×100.

[4] = system: PC-3 cells; assay: Cytotoxicity as LDH release in PC-3 cells; details: for LDH rel. % con. / LDH release, % of control at 50 µM: PC-3, 50 μM, 48 hours treatment; for LDH release, % of control at 50 µM: Homo sapiens, read-out: LDH rel. % con.
Procedure: as §1, §3

[5] = system: PC-3 cells; assay: Intracellular GSH levels by HPLC-EC in PC-3 cells; details: for Int. GSH % con. / activity at 25 µM: PC-3, 25 μM; for Int. GSH % con. / activity at 25 µM / activity at 50 µM: 24 hours treatment; for activity at 25 µM / activity at 50 µM: Homo sapiens, read-out: Int. GSH % con.; for activity at 50 µM: PC-3, 50 μM
Procedure: as §1, §2

[6] = system: A549 cells; assay: Cytotoxicity as LDH release in A549 cells; details: for LDH rel. % con. / LDH release, % of control at 75 µM: A549, 75 μM, 48 hours treatment; for LDH release, % of control at 75 µM: Homo sapiens, read-out: LDH rel. % con.
Procedure: as §1, §3

[7] = A549, 25 μM, 2 h, read-out: Intracellular GSH levels, % compared to control
[8] = A549, 25 μM, 4 h, read-out: Intracellular GSH levels, % compared to control
[9] = HL-60, 25 μM, 24 hours treatment
[10] = A549, 25 μM, 24 hours treatment
[11] = A549, 50 μM, 24 hours treatment
[12] = Homo sapiens, HL-60, 50 μM, read-out: LDH rel. % con.
[13] = Homo sapiens, 24 hours treatment, read-out: Int. GSH % con.
[14] = A549, 50 μM, 24 hours treatment, read-out: Int. GSH % con.
[15] = 24 hours treatment, read-out: Int. GSH % con.

In the case of O=C(/C=C/c1ccccc1O)c1ccccc1 [2-HC, 2-hydroxychalcone], the activity at 25 µM [1, 7] is reported as less than 5% and the activity at 25 µM [1, 8] is reported as less than 5%.

With C[C@]12CC[C@@H]3c4cc(O)c(O)cc4CC[C@H]3[C@@H]1CC[C@@H]2O [2-HE, 2-hydroxyestradiol, reference compound] the “Int. GSH % con.” value [2, 9] was 120 % con, the “LDH rel. % con.” value ([3]; HL-60, 25 μM) was 250 % con and the “LDH rel. % con.” value [4] was 113 % con. For the same molecule, the “Intracellular GSH levels, % compared to control” value (shortened to “Intracellular GSH levels, %”) ([1]; A549, 25 μM, 2 h) was 69.0 ± 0.5%, the “Int. GSH % con.” value [1, 10] was less than 5 % con and the “Int. GSH % con.” value [5] was 228 % con. The “LDH rel. % con.” value [6] was 150 % con.

In the case of COc1cc2c(cc1O)CC[C@@H]1[C@@H]2CC[C@]2(C)[C@@H](O)CC[C@@H]12 [2-ME, 2-methoxyestradiol, reference compound], the “Int. GSH % con.” value [2, 9] is reported as 41 % con, the “LDH rel. % con.” value ([3]; HL-60, 25 μM) is reported as 265 % con and the “LDH rel. % con.” value [4] is reported as 128 % con. The “Int. GSH % con.” value [1, 11] was 49 % con, the “Int. GSH % con.” value [5] was 68 % con and the “LDH rel. % con.” value [6] was 150 % con.

In the case of O=C(/C=C/c1ccccc1O)c1ccccc1O [2′,2-DHC, 2′ 2 dihydroxychalcone], the “Intracellular GSH levels, %” value ([1]; A549, 25 μM, 2 h) is reported as less than 5% and the “Intracellular GSH levels, %” value ([1]; A549, 25 μM, 4 h) is reported as less than 5%.

Molecule O=C(/C=C/c1ccc(O)cc1)c1ccc(O)cc1O [2′,4′,4-THC, 2′,4′,4 trihydroxychalcone] has an activity at 25 µM [1, 7] of 6.8 ± 0.2% and an activity at 25 µM [1, 8] of less than 5%.

In the case of O=C(/C=C/c1ccccc1)c1ccc(O)cc1O [2′,4′-DHC, 2′ 4′ dihydroxychalcone], the “Intracellular GSH levels, %” value ([1]; A549, 25 μM, 2 h) is reported as 22.0 ± 1.8% and the “Intracellular GSH levels, %” value ([1]; A549, 25 μM, 4 h) is reported as less than 5%.

O=C(/C=C/c1ccccc1)c1cc(O)ccc1O [2′,5′-DHC, 2′ 5′ dihydroxychalcone] was tested, and the “Int. GSH % con.” value [2, 9] was less than 5 % con, the “LDH rel. % con.” value ([3]; HL-60, 50 μM) was 310 % con and the “LDH rel. % con.” value [4] was 246 % con. For the same molecule, the “Intracellular GSH levels, %” value ([1]; A549, 25 μM, 2 h) was less than 5%, the “Intracellular GSH levels, %” value ([1]; A549, 25 μM, 4 h) was less than 5% and the “Int. GSH % con.” value [1, 10] was less than 5 % con. The “Int. GSH % con.” value [5] was 67 % con, the “LDH rel. % con.” value [6] was 273 % con and the “effect on the toxicities of rotenone (50 μM), curcumin (50 μM) and 2-ME (50 μM)” value ([6]; A549 cells, 48 hours, compound 10 μM (FIG. 20D)) was “potentiated”.

O=C(/C=C/c1ccc(O)cc1)c1ccccc1 [4-HC, 4-hydroxychalcone] showed an activity at 25 µM [1, 7] of 5.5 ± 0.4% and an activity at 25 µM [1, 8] of less than 5%.

In the case of O=C(/C=C/c1ccccc1)c1ccc(O)cc1 [4′-HC, 4′-hydroxychalcone], the “intracellular GSH levels compared to control” value ([2]; HL-60 cells, 25 μM, 24 hours of treatment (FIG. 19B)) is reported as 215%, the activity at 25 µM [1, 7] is reported as 35.6 ± 2.9% and the activity at 25 µM [1, 8] is reported as less than 5%. For the same molecule, the “intracellular GSH levels compared to control” value ([5]; PC-3 cells, 25 μM, 24 hours of treatment (FIG. 19B)) was 164%.

For O=c1cc(-c2ccccc2)oc2cccc(O)c12 [5-HF, 5-hydroxyflavone], the “effect on intracellular GSH (words)” value [1] was “less effective” and the activity at 25 µM [1, 8] was 44.7 ± 3.4%.

In the case of O=c1cc(-c2ccccc2)oc2cc(O)ccc12 [7-HF, 7-Hydroxyflavone], the activity at 50 µM ([2]; Homo sapiens, HL-60, 50 μM, 24 hours treatment, read-out: Int. GSH % con.) is reported as 56%, the LDH release, % of control at 50 µM [3, 12] is reported as 113% and the LDH release, % of control at 50 µM [4] is reported as 96%. The “effect on intracellular GSH (words)” value [1] was “almost as effective as chrysin”, the activity at 25 µM [1, 7] was 58.1 ± 1.4% and the activity at 25 µM ([1]; A549, 25 μM, 24 hours treatment, read-out: Int. GSH % con.) was less than 5%. The activity at 25 µM [5] was 63% and the LDH release, % of control at 75 µM [6] was 113%.

For COc1ccc2c(=O)cc(-c3ccccc3)oc2c1 [7-MF, 7-Methoxyflavone], the “effect on intracellular GSH (words)” value [1] was “less effective than 7-HF but more effective than flavone” and the activity at 25 µM [1, 7] was 78.2 ± 2.4%.

With O=c1cc(-c2ccc(O)cc2)oc2cc(O)cc(O)c12 [Apigenin] the “Int. GSH % con.” value ([2]; HL-60, 50 μM, 24 hours treatment) was 66 % con, the “LDH rel. % con.” value ([3]; HL-60, 50 μM) was 259 % con and the “LDH rel. % con.” value [4] was 142 % con. The “effect on curcumin-induced toxicity, LDH release” value ([4]; PC-3 cells, 48 hours (FIG. 20C)) was “potentiated the curcumin's toxicity, but unexpectedly less than chrysin”, the “Intracellular GSH levels, %” value ([1]; A549, 25 μM, 4 h) was 17.1 ± 1.4% and the “Int. GSH % con.” value [1, 10] was 9 % con. The “Int. GSH % con.” value [5] was 32 % con, the “effect on intracellular GSH (words)” value ([5]; PC-3 cells) was “one active flavone-like structure for inducing GSH depletion” and the “LDH rel. % con.” value [6] was 284 % con.

O=c1cc(-c2ccccc2)oc2cc(O)c(O)c(O)c12 [Baicalein, 5,6,7 trihydroxyflavone] showed an activity at 75 µM [2, 13] of 82%, an LDH release, % of control at 50 µM [3, 12] of 129% and an LDH release, % of control at 50 µM [4] of 94%. The activity at 50 µM [1, 14] was 41%, the activity at 50 µM [5] was 100% and the LDH release, % of control at 75 µM [6] was 206%.

Molecule COc1cc(/C=C/C(=O)CC(=O)/C=C/c2ccc(O)c(OC)c2)ccc1O [Curcumin, reference compound] has an activity at 25 µM ([2]; Homo sapiens, HL-60, 25 μM, 24 hours treatment, read-out: Int. GSH % con.) of 221%, an LDH release, % of control at 25 µM ([3]; Homo sapiens, HL-60, 25 μM, read-out: LDH rel. % con.) of 180% and an LDH release, % of control at 50 µM [4] of 180%. It also gave an activity at 50 µM [1, 14] of 53%, an activity at 25 µM [5] of 170% and an LDH release, % of control at 75 µM [6] of 140%.

Molecule Oc1cc(O)c2cc(O)c(-c3ccc(O)c(O)c3)[o+]c2c1 [Cyanidin] has an activity at 75 µM [2, 13] of 95%, an LDH release, % of control at 50 µM [3, 12] of 110% and an LDH release, % of control at 50 µM [4] of 93%. The activity at 75 µM [1, 15] was 82%, the activity at 50 µM [5] was 120% and the LDH release, % of control at 75 µM [6] was 110%.

Work on Oc1cc(O)c2c(c1)O[C@H](c1ccc(O)c(O)c1)[C@H](O)C2 [Epicatechin, (−)-epicatechin] yielded an activity at 75 µM [2, 13] of 90%, an LDH release, % of control at 50 µM [3, 12] of 76% and an LDH release, % of control at 50 µM [4] of 88%. For the same molecule, the activity at 75 µM [1, 15] was 47%, the activity at 50 µM [5] was 115% and the LDH release, % of control at 75 µM [6] was 104%.

With C[C@]12CC[C@@H]3c4ccc(O)cc4CC[C@H]3[C@@H]1CC[C@@H]2O [β-Estradiol, β-estradiol, reference compound] the “Int. GSH % con.” value [2, 9] was 70 % con, the “LDH rel. % con.” value ([3]; HL-60, 25 μM) was 120 % con and the “Int. GSH % con.” value [1, 11] was 41 % con. For the same molecule, the “Int. GSH % con.” value [5] was 98 % con.
